Measurements taken from the NIST ThermoML archive (doi:10.1016/j.jct.2009.11.012).

What was measured:
[1] = Molar enthalpy of transition or fusion; conditions: Crystal 2; DSC
[2] = DTA
[3] = molar enthalpy of transition or fusion; conditions: 298.15 K; Crystal 2; DSC
[4] = molar heat capacity at constant pressure; conditions: 101.33 kPa, Small sample (50 mg) DSC

O=C(Nc1ccc(Cl)cc1)Nc1ccc(Cl)c(Cl)c1 [N-(4-chlorophenyl)-N'-(3,4-dichlorophenyl)urea]
Conditions	Molar enthalpy of transition or fusion [kJ/mol]	molar enthalpy of transition or fusion [kJ/mol]
[1]	6.1	–
[3]	–	182

[2]
Conditions	Normal melting temperature [°C]	Triple point temperature [K]
Crystal 1	254.4	–
Crystal 2	–	428

[4]
Conditions	molar heat capacity at constant pressure [J/K/mol]
263.15 K, Crystal 2	268.71
265.15 K, Crystal 2	269.88
270.15 K, Crystal 2	272.35
275.15 K, Crystal 2	274.29
280.15 K, Crystal 2	276.34
285.15 K, Crystal 2	278.5
290.15 K, Crystal 2	280.82
295.15 K, Crystal 2	282.87
298.15 K, Crystal 2	284.13
300.15 K, Crystal 2	285.18
305.15 K, Crystal 2	287.71
310.15 K, Crystal 2	290.49
315.15 K, Crystal 2	290.67
320.15 K, Crystal 2	294.23
325.15 K, Crystal 2	294.87
330.15 K, Crystal 2	297.95
335.15 K, Crystal 2	299.93
340.15 K, Crystal 2	302.05
345.15 K, Crystal 2	304.25
350.15 K, Crystal 2	307.35
355.15 K, Crystal 2	310.57
360.15 K, Crystal 2	313.61
365.15 K, Crystal 2	316.56
370.15 K, Crystal 2	318.53
375.15 K, Crystal 2	320.86
380.15 K, Crystal 2	322.77
385.15 K, Crystal 2	325.84
390.15 K, Crystal 2	328.48
395.15 K, Crystal 2	330.98
400.15 K, Crystal 2	333.62
405.15 K, Crystal 2	335.55
410.15 K, Crystal 2	339.3
475.15 K, Crystal 1	432.35
480.15 K, Crystal 1	436.61
485.15 K, Crystal 1	444.02
490.15 K, Crystal 1	452.78
495.15 K, Crystal 1	464.93
